Results as given in publication PMC10901556, “Conservation of Affinity Rather Than Sequence Underlies a Dynamic Evolution of the Motif-Mediated p53/MDM2 Interaction in Ray-Finned Fishes” (Molecular Biology and Evolution, 2024).
Where two headings read alike, the source gives them in different places. Where no end group is shown, it is not given here.

Assays:
Assay in all cases: Fluorescence polarization displacement assay
Format in all cases: binding
[1] = target: MDM2 SWIB domain, Oncorhynchus kisutch; details: for Kd: FP displacement of FITC-p53TADhuman^15–26 (15 nM) from MDM2, KD from IC50, 20 mM sodium phosphate pH 7.4, 150 mM NaCl, 1 mM TCEP; for IC50 / Ki: O.kis MDM2 2000 nM
Sequence of MDM2 SWIB domain, Oncorhynchus kisutch (as listed by the source): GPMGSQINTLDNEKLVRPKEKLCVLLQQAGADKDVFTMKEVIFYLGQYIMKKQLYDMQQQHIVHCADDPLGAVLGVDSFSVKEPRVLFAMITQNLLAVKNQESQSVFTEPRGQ

[2] = target: T1, MDM2H.sapiens SWIB domain (Homo sapiens, UniProt Q00987)
T1 construct: NusA-TEV-His6-PreScission (N, cleaved yes); made in house; host or cells: Escherichia coli BL21 (DE3)
T1 sequence (Q00987 with tags, fused parts or gaps): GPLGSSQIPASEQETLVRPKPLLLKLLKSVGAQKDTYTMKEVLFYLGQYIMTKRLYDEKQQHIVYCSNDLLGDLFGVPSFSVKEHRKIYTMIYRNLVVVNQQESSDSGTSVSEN

[3] = target: MDM2 SWIB domain, Takifugu rubripes; details: for IC50 / Ki: T.rub MDM2 1500 nM
Sequence of MDM2 SWIB domain, Takifugu rubripes (as listed by the source): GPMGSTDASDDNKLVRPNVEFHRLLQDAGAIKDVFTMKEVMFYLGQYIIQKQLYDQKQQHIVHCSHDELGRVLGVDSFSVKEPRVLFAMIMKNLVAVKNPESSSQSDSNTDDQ

[4] = target: MDM2 SWIB domain, Anguilla anguilla; details: for Kd: FP displacement of FITC-p53TADhuman^15–26 (15 nM) from MDM2 (1 μM), KD from IC50, 20 mM sodium phosphate pH 7.4, 150 mM NaCl, 1 mM TCEP
Sequence of MDM2 SWIB domain, Anguilla anguilla (as listed by the source): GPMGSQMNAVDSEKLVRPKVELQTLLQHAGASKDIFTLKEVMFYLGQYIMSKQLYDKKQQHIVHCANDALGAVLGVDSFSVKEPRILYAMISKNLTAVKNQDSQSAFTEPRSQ

[5] = target: MDM2 SWIB domain, Clupea harengus; details: for Kd: FP displacement of FITC-p53TADhuman^15–26 (15 nM) from MDM2 (1 μM), KD from IC50, 20 mM sodium phosphate pH 7.4, 150 mM NaCl, 1 mM TCEP
Sequence of MDM2 SWIB domain, Clupea harengus (as listed by the source): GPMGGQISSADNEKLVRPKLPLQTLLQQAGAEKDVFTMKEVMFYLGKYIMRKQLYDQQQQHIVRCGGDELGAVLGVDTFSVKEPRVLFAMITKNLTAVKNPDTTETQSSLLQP

[6] = labeled probe 15 nM, replicate 1, read-out: IC50 [M] (IT)
[7] = labeled probe 15 nM, replicate 2, read-out: IC50 [M] (IT)
[8] = labeled probe 15 nM, replicate 3, read-out: IC50 [M] (IT)
[9] = average of the replicates, probe 15 nM, Kd for probe […], read-out: Ki [nM] Average
[10] = average of the replicates, probe 15 nM, Kd for probe […], read-out: Ki [µM] Average
[11] = calculated from IC50, Kd for probe […], probe 15 nM, replicate 1, read-out: Ki
[12] = calculated from IC50, Kd for probe […], probe 15 nM, replicate 2, read-out: Ki
[13] = calculated from IC50, Kd for probe […], probe 15 nM, replicate 3, read-out: Ki
[14] = mean of the replicates, probe 15 nM, read-out: IC50 [nM], mean of the replicates
[15] = equals the mean of the replicates, read-out: IC50 [nM], mean
[16] = mean of the replicates (n = 3 or 6), read-out: Ki [nM] Average
[17] = mean of the replicates (n = 3 or 6), read-out: Ki [µM] Average
[18] = replicate 1, MDM2 1000 nM, labeled probe 15 nM, read-out: IC50 [M] (IT)
[19] = replicate 1, calculated from IC50 with Kd for probe […], read-out: Ki
[20] = replicate 2, MDM2 1000 nM, labeled probe 15 nM, read-out: IC50 [M] (IT)
[21] = replicate 2, calculated from IC50 with Kd for probe […], read-out: Ki
[22] = replicate 3, MDM2 1000 nM, labeled probe 15 nM, read-out: IC50 [M] (IT)
[23] = replicate 3, calculated from IC50 with Kd for probe […], read-out: Ki

Compound: GPMGMADLAENVSLPLSQESFEDLWKMNLNLMAVQPPVTESWVGYDNFMMEAPLQVEFDPSLFEVSATEPAPQPSISTLDTGSPPTST [O.kis p53 P2 full, expressed full-length coho salmon p53TAD paralog 2]
- Kd [1]: 0.07 ± 0.01 µM
- IC50 [1, 6]: 2.13e-06 M
- IC50 [1, 7]: 2.37e-06 M
- IC50 [1, 8]: 2.18e-06 M
- Ki [1, 9]: 68.6 nM
- Ki [1, 10]: 69 nM
- Ki [1, 11]: 55.4 nM
- Ki [1, 12]: 88.9 nM
- Ki [1, 13]: 61.7 nM
- IC50 [1, 14]: 2.23e-06 M

Compound: GPMGMEEQELSFPMSQGSFQQLWETNMSTQGSNIPPFGTGNWSDLDVSLAPVLPEATFHEDFDEGLFELPEPLAVEPLMSPLDSVPPPAST [O.kis p53 P1b full, expressed full-length coho salmon p53TAD paralog 1b]
- Kd [1]: 0.06 ± 0.01 µM
- IC50 [1, 6]: 2.27e-06 M
- IC50 [1, 7]: 2.26e-06 M
- IC50 [1, 8]: 1.96e-06 M
- Ki [1, 9]: 59.6 nM
- Ki [1, 10]: 60 nM
- Ki [1, 11]: 75.2 nM
- Ki [1, 12]: 73.4 nM
- Ki [1, 13]: 30.3 nM
- IC50 [1, 14]: 2.16e-06 M

Compound: Ac-SQESFQELWKMIL [Tele p53 AA]
- IC50 [2]: 0.105 µM
- KD ([2]; FP displacement, printed in nM (Fig. S4 A native and B human MDM2)): lowest_Kd
- Ki, remark beside the average ([2]; H.sap MDM2, labeled probe 15 nM, protein 200 nM, result in words): very high affinity

Compound: GPMGMEDEGFSLPLSQDTFQDLWENVAAPSIVTIPTTSLENEQWHQELLMNYPELPFNEELFNLPSEMASKDSANLSTPT [T.rub p53 P1 full, expressed full-length Japanese puffer p53TAD paralog 1]
- Kd ([3]; FP displacement of FITC-p53TADhuman^15–26 (15 nM) from MDM2, KD from IC50, 20 mM sodium phosphate pH 7.4, 150 mM NaCl, 1 mM TCEP): 0.47 ± 0.03 µM
- IC50 [3, 6]: 4.93e-06 M
- IC50 ([3]; labeled probe 15 nM, replicate 2, read-out: IC50): 4.16e-06 M
- IC50 [3, 8]: 4.19e-06 M
- IC50 ([3]; labeled probe 15 nM, replicate 4, read-out: IC50 [M] (IT)): 3.43e-06 M
- IC50 ([3]; labeled probe 15 nM, replicate 5, read-out: IC50 [M] (IT)): 4.05e-06 M
- IC50 ([3]; labeled probe 15 nM, replicate 6, read-out: IC50 [M] (IT)): 4.53e-06 M
- Ki ([3]; average of the replicates, probe 15 nM, Kd for probe 290 nM, read-out: Ki [nM] Average): 475 nM
- Ki ([3]; average of the replicates, probe 15 nM, Kd for probe 290 nM, read-out: Ki [µM] Average): 475 nM
- Ki ([3]; calculated from IC50, Kd for probe 290 nM, probe 15 nM, replicate 1, read-out: Ki): 592 nM
- Ki ([3]; calculated from IC50, Kd for probe 290 nM, probe 15 nM, replicate 2, read-out: Ki): 467 nM
- Ki ([3]; calculated from IC50, Kd for probe 290 nM, probe 15 nM, replicate 3, read-out: Ki): 471 nM
- Ki ([3]; calculated from IC50, Kd for probe 290 nM, probe 15 nM, replicate 4, read-out: Ki): 347 nM
- Ki ([3]; calculated from IC50, Kd for probe 290 nM, probe 15 nM, replicate 5, read-out: Ki): 449 nM
- Ki ([3]; calculated from IC50, Kd for probe 290 nM, probe 15 nM, replicate 6, read-out: Ki): 527 nM
- IC50 [3, 14]: 4.21e-06 M

Compound: GPMGMEELSPPLGQCSFQQLWESNMTPQGPSIPLVATENWSDLDVSLLPDATLHKVFDEVLFELLEPPVVEPSVSTLDSVPPPAST [O.kis p53 P1a full, expressed full-length coho salmon p53TAD paralog 1a]
- Kd [1]: 0.048 ± 0.005 µM
- IC50 [1, 6]: 2.11e-06 M
- IC50 [1, 7]: 2.02e-06 M
- IC50 [1, 8]: 2.12e-06 M
- Ki [1, 9]: 48.4 nM
- Ki [1, 10]: 48 nM
- Ki [1, 11]: 52.4 nM
- Ki [1, 12]: 38.8 nM
- Ki [1, 13]: 54.1 nM
- IC50 [1, 14]: 2.08e-06 M

Compound: Ac-SQESFQELWNMVA [Acti p53 AA]
- IC50 [2]: 0.459 µM
- Kd [2]: 0.039 µM

Compound: Ac-SQESFEDLWKMNL [O.kis p53 P2 short]
- IC50 [2]: 5.93 µM
- Ki [2]: 0.787 µM

Compound: Ac-SQESFQELWNMVI [L.ocu p53 short]
- IC50 [2]: 1.05 µM
- Ki [2]: 0.12 µM

Compound: Ac-SQDSFRELWESVV [C.arg p53 P1 short]
- IC50 [2]: 8.08 µM
- Ki [2]: 1.08 µM

Compound: Ac-SQESFQELWNMVM [Tele p53 ML]
- IC50 [2]: 0.456 µM
- Kd [2]: 0.039 µM

Compound: GPMGMTEQEGTGALEYSLSQDETFQALWNTVTVPTEDEGWGSLDNQYLVGSPLQDGFDEKLFDVPATPAPPQPSGSALDSGAPPAST [A.ang p53 P2 full, expressed full-length European eel p53TAD paralog 2]
- Kd [4]: 0.06 ± 0.01 µM
- IC50 [4, 15]: 1230 nM
- Ki [4, 16]: 63.5 nM
- Ki [4, 17]: 63.5 nM
- IC50 [4, 18]: 1360 nM
- Ki [4, 19]: 85.1 nM
- IC50 [4, 20]: 1080 nM
- Ki [4, 21]: 39.5 nM
- IC50 [4, 22]: 1240 nM
- Ki [4, 23]: 65.8 nM

Compound: Ac-SQDSFKELWDQLP [M.zeb p53 P1 short]
- IC50 [2]: 2.15 µM
- Ki [2]: 0.27 µM

Compound: Ac-SQESFQELWKMMC [A.ang p53 P1 short]
- IC50 [2]: 0.265 µM
- Ki [2]: 0.0129 µM

Compound: Ac-SQDETFQALWNTVT [A.ang p53 P2 short]
- IC50 [2]: 5.78 µM
- Ki [2]: 0.767 µM

Compound: Ac-GQCSFQQLWESNM [O.kis p53 P1a short]
- IC50 [2]: 23.2 µM
- Ki [2]: 3.15 µM

Compound: GPMGMNQDEMTELPMSQGTFDEIWASNFVNNLDKTILDDLPPAFSNPSIHTLMDLGPSGVEGFVGLELPLDGSAPTPSSSPGMDCLPPTATT [C.har p53 P1 full, expressed full-length Atlantic herring p53TAD paralog 1]
- Kd [5]: 0.19 ± 0.04 µM
- IC50 [5, 15]: 1440 nM
- Ki [5, 16]: 189 nM
- Ki [5, 17]: 190 nM
- IC50 [5, 18]: 1470 nM
- Ki [5, 19]: 199 nM
- IC50 [5, 20]: 1660 nM
- Ki [5, 21]: 252 nM
- IC50 [5, 22]: 1180 nM
- Ki [5, 23]: 117 nM

Compound: Ac-SQESFQDLWNMVT [Acti p53 ML]
- IC50 [2]: 1.51 µM
- Ki [2]: 0.183 µM

Compound: CC(C)C[C@H](NC(=O)[C@@H](NC(=O)[C@H](CC(N)=O)NC(=O)[C@H](CC(N)=O)NC(=O)[C@H](CCC(=O)O)NC(=O)[C@H](C)NC(=O)[C@H](CC(C)C)NC(=O)[C@H](CC(C)C)NC(=O)[C@H](CCCCN)NC(=O)[C@H](Cc1c[nH]c2ccccc12)NC(=O)[C@H](CC(C)C)NC(=O)[C@H](CC(=O)O)NC(=O)[C@H](CO)NC(=O)[C@H](Cc1ccccc1)NC(=O)[C@@H](NC(=O)[C@@H](N)CCC(=O)O)[C@@H](C)O)C(C)C)C(=O)O [H.sap p53 P27A]
- remark on affinity beside the average Ki ([2]; probe 15 nM, protein 200 nM, calculated Ki negative): very high affinity

Compound: CC[C@H](C)[C@H](NC(=O)[C@H](CO)NC(=O)[C@H](CC(N)=O)NC(=O)[C@H](Cc1c[nH]c2ccccc12)NC(=O)[C@H](CC(C)C)NC(=O)[C@H](CC(=O)O)NC(=O)[C@H](CCC(=O)O)NC(=O)[C@H](Cc1ccccc1)NC(=O)[C@H](CC(=O)O)NC(=O)[C@@H]1CCCN1C(=O)[C@H](CO)NC(=O)[C@H](CC(=O)O)NC(C)=O)C(=O)N[C@H](C(=O)O)C(C)C [C.har p53 P2 short]
- IC50 [2]: 2.31 µM
- Ki [2]: 0.293 µM

Compound: GPMGMNDQGDSPDFEDLWNSIVPPVADVPWETSYLPESFDEQVFEQLQVSEPYIPTLGGGSPPCSA [C.har p53 P2 full, expressed full-length Atlantic herring p53TAD paralog 2]
- Kd [5]: 0.04 ± 0.01 µM
- IC50 [5, 15]: 904 nM
- Ki [5, 16]: 37.1 nM
- Ki [5, 17]: 37 nM
- IC50 [5, 18]: 913 nM
- Ki [5, 19]: 39.8 nM
- IC50 [5, 20]: 983 nM
- Ki [5, 21]: 59.7 nM
- IC50 [5, 22]: 815 nM
- Ki [5, 23]: 11.9 nM

Compound: Ac-SQGTFDEIWASNF [C.har p53 P1 short]
- IC50 [2]: 9.33 µM
- Ki [2]: 1.25 µM

Compound: Ac-SQDTFQDLWENVA [T.rub p53 P1 short]
- IC50 [2]: 12.7 µM
- Ki [2]: 1.71 µM

Compound: GPMGMTEQEAESLPLSQESFQELWKMMCPPATIHEPLSVNDGWHLESLLSETPLQESIDAGVFDLPTTLPPQPSVSAFNGDAALSST [A.ang p53 P1 full, expressed full-length European eel p53TAD paralog 1]
- Kd [4]: 0.23 ± 0.02 µM
- IC50 [4, 15]: 2210 nM
- Ki [4, 16]: 229 nM
- Ki [4, 17]: 229 nM
- IC50 [4, 18]: 2080 nM
- Ki [4, 19]: 208 nM
- IC50 [4, 20]: 2490 nM
- Ki [4, 21]: 277 nM
- IC50 [4, 22]: 2060 nM
- Ki [4, 23]: 203 nM
